Test results from ChEMBL document CHEMBL1201862, “PubChem BioAssay data set” (2004).
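All cell lines were grown in 96-well plates and treated with compound for 48 hours. The concentration for 50% growth inhibition is given as GI50.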 Activity calls are given as the source filed them. Cut-off read from the data, not from the text of the source: active = GI50 up to about 1.1 µM and inactive = higher.

Experiments:
Assay in all cases: NCI-60 cell line screen, 48 h
NCI-H460 = test system: NCI-H460
COLO 205 = test system: COLO 205
SF-295 = test system: SF-295
EKVX = test system: EKVX
NCI/ADR-RES = test system: NCI/ADR-RES
K562 = test system: K562
CCRF-CEM = test system: CCRF-CEM
IGROV-1 = test system: IGROV-1
A498 = test system: A498
A549 = test system: A549
MCF7 = test system: MCF7
MDA-MB-435 = test system: MDA-MB-435
SN12C = test system: SN12C
Malme-3M = test system: Malme-3M
MDA-MB-231 = test system: MDA-MB-231
HCC 2998 = test system: HCC 2998
UACC-62 = test system: UACC-62
LOX IMVI = test system: LOX IMVI
SNB-19 = test system: SNB-19
SK-MEL-5 = test system: SK-MEL-5
SK-MEL-28 = test system: SK-MEL-28
HCT-116 = test system: HCT-116
PC-3 = test system: PC-3
MDA-N = test system: MDA-N
HCT-15 = test system: HCT-15
SK-OV-3 = test system: SK-OV-3
HOP-62 = test system: HOP-62
UO-31 = test system: UO-31
TK-10 = test system: TK-10
SNB-75 = test system: SNB-75
UACC-257 = test system: UACC-257
HT-29 = test system: HT-29
Hs-578T = test system: Hs-578T
RXF 393 = test system: RXF 393
HL-60 = test system: HL-60
SK-MEL-2 = test system: SK-MEL-2
BT-549 = test system: BT-549
SR = test system: SR
MOLT-4 = test system: MOLT-4
M14 = test system: M14
NCI-H226 = test system: NCI-H226
CAKI-1 = test system: CAKI-1
OVCAR-8 = test system: OVCAR-8
DU-145 = test system: DU-145
SW-620 = test system: SW-620
OVCAR-4 = test system: OVCAR-4
SF-268 = test system: SF-268
OVCAR-3 = test system: OVCAR-3
SF-539 = test system: SF-539
OVCAR-5 = test system: OVCAR-5
NCI-H23 = test system: NCI-H23
U-251 = test system: U-251
HOP-92 = test system: HOP-92
T47D = test system: T47D
ACHN = test system: ACHN
RPMI-8226 = test system: RPMI-8226
NCI-H522 = test system: NCI-H522
KM12 = test system: KM12
786-0 = test system: 786-0

## O=c1c(Cc2c(O)oc3cc(O)ccc3c2=O)c(O)oc2cc(O)ccc12
NCI-H460
  GI50: > 100 µM (inactive)
COLO 205
  GI50: > 100 µM (inactive)
SF-295
  GI50: > 100 µM (inactive)
EKVX
  GI50: > 100 µM (inactive)
NCI/ADR-RES
  GI50: > 100 µM (inactive)
K562
  GI50: 64.9 µM (inactive)
CCRF-CEM
  GI50: 56 µM (inactive)
IGROV-1
  GI50: > 100 µM (inactive)
A498
  GI50: > 100 µM (inactive)
A549
  GI50: > 100 µM (inactive)
MCF7
  GI50: > 100 µM (inactive)
MDA-MB-435
  GI50: > 100 µM (inactive)
SN12C
  GI50: > 100 µM (inactive)
Malme-3M
  GI50: > 100 µM (inactive)
MDA-MB-231
  GI50: > 100 µM (inactive)
HCC 2998
  GI50: > 100 µM (inactive)
UACC-62
  GI50: > 100 µM (inactive)
LOX IMVI
  GI50: > 100 µM (inactive)
SNB-19
  GI50: > 100 µM (inactive)
SK-MEL-5
  GI50: 41.8 µM (inactive)
SK-MEL-28
  GI50: > 100 µM (inactive)
HCT-116
  GI50: > 100 µM (inactive)
PC-3
  GI50: > 100 µM (inactive)
MDA-N
  GI50: > 100 µM (inactive)
HCT-15
  GI50: > 100 µM
SK-OV-3
  GI50: > 100 µM (inactive)
HOP-62
  GI50: > 100 µM (inactive)
UO-31
  GI50: 31.9 µM (inactive)
TK-10
  GI50: > 100 µM (inactive)
SNB-75
  GI50: 53.5 µM (inactive)
UACC-257
  GI50: > 100 µM (inactive)
HT-29
  GI50: > 100 µM (inactive)
Hs-578T
  GI50: 94.4 µM (inactive)
RXF 393
  GI50: > 100 µM (inactive)
HL-60
  GI50: > 100 µM (inactive)
SK-MEL-2
  GI50: > 100 µM (inactive)
BT-549
  GI50: > 100 µM (inactive)
SR
  GI50: > 100 µM (inactive)
MOLT-4
  GI50: > 100 µM (inactive)
M14
  GI50: > 100 µM (inactive)
NCI-H226
  GI50: > 100 µM (inactive)
CAKI-1
  GI50: > 100 µM (inactive)
OVCAR-8
  GI50: > 100 µM (inactive)
DU-145
  GI50: > 100 µM (inactive)
SW-620
  GI50: > 100 µM (inactive)
OVCAR-4
  GI50: 56.8 µM (inactive)
SF-268
  GI50: > 100 µM (inactive)
OVCAR-3
  GI50: > 100 µM (inactive)
SF-539
  GI50: > 100 µM (inactive)
OVCAR-5
  GI50: > 100 µM (inactive)
NCI-H23
  GI50: > 100 µM (inactive)
U-251
  GI50: > 100 µM (inactive)
HOP-92
  GI50: > 100 µM (inactive)
T47D
  GI50: > 100 µM (inactive)

## COc1ccccc1NC(=O)CC(=O)N1N=C(C)C(/N=N/c2ccc(C(=O)O)cc2)C1=O (centres undefined)
ACHN
  GI50: > 100 µM (inactive)
COLO 205
  GI50: > 100 µM (inactive)
SF-295
  GI50: > 100 µM (inactive)
EKVX
  GI50: 28.6 µM (inactive)
NCI/ADR-RES
  GI50: > 100 µM (inactive)
K562
  GI50: > 100 µM (inactive)
CCRF-CEM
  GI50: > 100 µM (inactive)
IGROV-1
  GI50: > 100 µM (inactive)
A498
  GI50: > 100 µM (inactive)
A549
  GI50: > 100 µM (inactive)
MCF7
  GI50: > 100 µM (inactive)
MDA-MB-435
  GI50: > 100 µM (inactive)
SN12C
  GI50: > 100 µM (inactive)
Malme-3M
  GI50: > 100 µM (inactive)
MDA-MB-231
  GI50: > 100 µM (inactive)
HCC 2998
  GI50: > 100 µM (inactive)
UACC-62
  GI50: > 100 µM (inactive)
LOX IMVI
  GI50: > 100 µM (inactive)
SNB-19
  GI50: > 100 µM (inactive)
SK-MEL-5
  GI50: > 100 µM (inactive)
SK-MEL-28
  GI50: > 100 µM (inactive)
HCT-116
  GI50: > 100 µM (inactive)
PC-3
  GI50: > 100 µM (inactive)
RPMI-8226
  GI50: > 100 µM (inactive)
MDA-N
  GI50: > 100 µM (inactive)
HCT-15
  GI50: > 100 µM
HOP-62
  GI50: > 100 µM (inactive)
UO-31
  GI50: > 100 µM (inactive)
TK-10
  GI50: > 100 µM (inactive)
SNB-75
  GI50: 2.24 µM (inactive)
UACC-257
  GI50: > 100 µM (inactive)
HT-29
  GI50: 23.8 µM (inactive)
Hs-578T
  GI50: > 100 µM (inactive)
RXF 393
  GI50: > 100 µM (inactive)
HL-60
  GI50: > 100 µM (inactive)
SK-MEL-2
  GI50: > 100 µM (inactive)
BT-549
  GI50: > 100 µM (inactive)
SR
  GI50: > 100 µM (inactive)
M14
  GI50: > 100 µM (inactive)
CAKI-1
  GI50: > 100 µM (inactive)
NCI-H522
  GI50: > 100 µM (inactive)
OVCAR-8
  GI50: > 100 µM (inactive)
DU-145
  GI50: > 100 µM (inactive)
SW-620
  GI50: > 100 µM (inactive)
KM12
  GI50: > 100 µM (inactive)
OVCAR-4
  GI50: > 100 µM (inactive)
SF-268
  GI50: > 100 µM (inactive)
OVCAR-3
  GI50: > 100 µM (inactive)
SF-539
  GI50: > 100 µM (inactive)
OVCAR-5
  GI50: > 100 µM (inactive)
NCI-H23
  GI50: > 100 µM (inactive)
U-251
  GI50: > 100 µM (inactive)
786-0
  GI50: > 100 µM (inactive)
HOP-92
  GI50: 28.2 µM (inactive)
T47D
  GI50: > 100 µM (inactive)
